From US10357481B2 (MERCK SHARP & DOHME CORP., priority 2015, dated 2019)

Biological target: T1, human PDE2A1 (Homo sapiens, UniProt O00408)
T1 construct: GST; purchased BPS Bioscience (San Diego, Calif.) 60020; host or cells: insect cells
Assay: IMAP FP PDE selectivity panel, human PDE2A1
Format: biochemical
Conditions: Lab B; read-out: Human PDE2 Ki (nM) Lab B
How it was run: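 Human PDE2A1 tested alongside PDE1–11 by IMAP fluorescence polarization at room temperature. Substrate was 50 nM FAM-cAMP plus 1000 nM cGMP, buffer pH 7.2 with MgCl2 and DTT, enzyme set for 20% conversion. Ten 3-fold compound dilutions; 60 min reaction, then IMAP binding solution, 1 h, parallel/perpendicular fluorescence read.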

T1 sequence (O00408 1-920 isoform O00408-2): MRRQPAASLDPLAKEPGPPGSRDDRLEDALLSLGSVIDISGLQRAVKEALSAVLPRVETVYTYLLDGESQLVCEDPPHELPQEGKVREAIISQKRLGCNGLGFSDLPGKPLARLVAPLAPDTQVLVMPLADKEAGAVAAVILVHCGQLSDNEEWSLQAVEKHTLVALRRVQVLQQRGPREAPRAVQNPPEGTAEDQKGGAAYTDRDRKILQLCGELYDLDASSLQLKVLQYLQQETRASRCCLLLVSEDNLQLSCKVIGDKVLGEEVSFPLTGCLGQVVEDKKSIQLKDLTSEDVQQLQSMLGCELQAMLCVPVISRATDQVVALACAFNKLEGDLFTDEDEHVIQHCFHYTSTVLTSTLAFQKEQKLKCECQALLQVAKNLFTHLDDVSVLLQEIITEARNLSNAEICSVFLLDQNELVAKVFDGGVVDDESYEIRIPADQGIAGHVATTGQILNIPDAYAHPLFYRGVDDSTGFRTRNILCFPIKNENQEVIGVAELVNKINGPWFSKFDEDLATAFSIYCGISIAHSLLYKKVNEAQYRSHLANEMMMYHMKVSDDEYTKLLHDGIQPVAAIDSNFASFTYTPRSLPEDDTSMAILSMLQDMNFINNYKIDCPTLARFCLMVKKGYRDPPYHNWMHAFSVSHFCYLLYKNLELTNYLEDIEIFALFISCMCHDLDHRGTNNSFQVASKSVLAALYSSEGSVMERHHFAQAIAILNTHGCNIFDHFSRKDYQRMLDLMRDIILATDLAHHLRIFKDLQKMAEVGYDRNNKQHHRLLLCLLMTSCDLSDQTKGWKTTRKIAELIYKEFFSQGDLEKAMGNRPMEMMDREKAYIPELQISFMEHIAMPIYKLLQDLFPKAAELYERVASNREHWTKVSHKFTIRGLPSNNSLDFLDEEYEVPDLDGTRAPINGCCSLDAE

Row | SMILES | Ki [nM]
1 | CC(C)(C)[C@@H](Nc1cc(CO)nc2ncnn12)c1ccc(C(F)(F)F)c(F)c1 [Example 79, [7-({(1R)-1-[3-Fluoro-4-(trifluoromethyl)phenyl]-2,2-dimethylpropyl}amino)[1,2,4]triazolo[1,5-a]pyrimidin-5-yl]methanol] | 208
2 | CC(C)(O)C(Nc1cc(C2CC2)nc2ncnn12)c1ccc(C(F)(F)F)cc1 (stereo in doubt) [Example 157, (1S)-1-[(5-Cyclopropyl[1,2,4]triazolo[1,5-a]pyrimidin-7-yl)amino]-2-methyl-1-[4-(trifluoromethyl)phenyl]propan-2-ol] | 37
3 | Cc1cc(NC(c2ccc(OC(F)(F)F)c(F)c2)C2COC2)n2ncnc2n1 (single isomer, unassigned) [Example 230, (S)- or (R)-N-((3-Fluoro-4-(trifluoromethoxy)phenyl)(oxetan-3-yl)methyl)-5-methyl-[1,2,4]triazolo [1,5-a]pyrimidin-7-amine] | 167
4 | CCc1nc2nc(C)cc(NC3(c4ccc(C(F)(F)F)c(F)c4)CC3)n2n1 [Example 193, 2-Ethyl-N-(1-(3-fluoro-4-(trifluoromethyl)phenyl)cyclopropyl)-5-methyl-[1,2,4]triazolo [1,5-a]pyrimidin-7-amine] | 142
5 | CCC(O)(CC)C(Nc1cc(C(F)(F)F)nc2ncnn12)c1ccc(C(F)(F)F)c(F)c1 (single isomer, unassigned) [Example 220, (S)- or (R)-3-((3-Fluoro-4-(trifluoromethyl)phenyl)(5-(trifluoromethyl)-[1,2,4]triazolo [1,5-a]pyrimidin-7-ylamino)methyl) pentan-3-ol] | ~2110
6 | Cc1nc2ncnn2c(N[C@H](C)c2ccc(C(F)(F)F)cc2)c1C [Example 85, 5,6-Dimethyl-N-{(1R)-1-[4-(trifluoromethyl)phenyl]ethyl}[1,2,4]triazolo[1,5-a]pyrimidin-7-amine] | ~1160
7 | CC(C)(O)[C@@H](Nc1cc(C(F)F)cc2ncnn12)c1ccc(OC(F)(F)F)cc1F [Example 281, (1S)-1-{[7-(Difluoromethyl) [1,2,4]triazolo[1,5-a]pyridin-5-yl]amino}-1-[2-fluoro-4-(trifluoromethoxy)phenyl]-2-methylpropan-2-ol] | 40
8 | Cc1cc(NC(C)(C)c2ccc(SC(F)(F)F)cc2)n2ncnc2n1 [Example 55, 5-Methyl-N-(1-methyl-1-{4-[(trifluoromethyl)sulfanyl]phenyl}ethyl)[1,2,4]triazolo[1,5-a] pyrimidin-7-amine] | 211
9 | CC(C)(O)C(Nc1cc(C(F)F)nc2ncnn12)c1ccc(OC(F)(F)F)c(F)c1 (single isomer, unassigned) [Example 188, (1R or S)-{[5-(Difluoromethyl) [1,2,4]triazolo [1,5-a]pyrimidin-7-yl]amino}-1-[3-fluoro-4-(trifluoromethoxy)phenyl]-2-methylpropan-2-ol] | > 2960
10 | Cc1cc(N[C@@H](c2ccc(C3CC3)c(F)c2)C(C)(C)C)n2ncnc2n1 [Example 31, N-[(1R)-1-(4-Cyclopropyl-3-fluorophenyl)-2,2-dimethylpropyl]-5-methyl[1,2,4]triazolo[1,5-a] pyrimidin-7-amine] | 4.9
11 | Cc1cc(NC2(c3ccc(SC(F)(F)F)c(F)c3)CCC2)n2ncnc2n1 [Example 66, N-(1-{3-Fluoro-4-[(trifluoromethyl)sulfanyl]phenyl}cyclobutyl)-5-methyl[1,2,4]triazolo[1,5-a] pyrimidin-7-amine] | 108
12 | CC(C)(O)[C@@H](Nc1cncc2ncnn12)c1ccc(C(F)(F)F)cc1 [Example 287, (1S)-2-Methyl-1-([1,2,4]triazolo[1,5-a]pyrazin-5-ylamino)-1-[4-(trifluoromethyl)phenyl]propan-2-ol] | 150
13 | Cc1cc(NC(c2ccc(C(F)(F)F)c(F)c2)C(C)(C)N)n2ncnc2n1 (stereo not shown) [Example 252, 1-(3-Fluoro-4-(trifluoromethyl)phenyl)-2-methyl-N-(5-methyl-[1,2,4]triazolo[1,5-a]pyrimidin-7-yl)propane-1,2-diamine] | 60
14 | Cc1cc(N[C@H](C)c2ccc(SC(F)(F)F)cc2)n2ncnc2n1 [Example 10, 5-Methyl-N-[(1R)-1-{4-[(trifluoromethyl)sulfanyl]phenyl}ethyl][1,2,4]triazolo[1,5-a]pyrimidin-7-amine] | 21
15 | Cc1cc(N[C@@H](c2ccc(OC(F)(F)F)cc2)C(C)(C)O)n2ncnc2n1 [Example 96, (1S)-2-Methyl-1-[(5-methyl [1,2,4]triazolo[1,5-a]pyrimidin-7-yl)amino]-1-[4-(trifluoromethoxy)phenyl]propan-2-ol] | 15
16 | Cc1cc(NC(C)(C)c2ccc(C(F)(F)F)cc2Cl)n2ncnc2n1 [Example 47, N-{1-[2-Chloro-4-(trifluoromethyl)phenyl]-1-methylethyl}-5-methyl [1,2,4]triazolo[1,5-a]pyrimidin-7-amine] | 161
17 | Cc1cc(NC(c2ccc(-c3ccccc3)cc2)C(C)(C)O)n2ncnc2n1 (single isomer, unassigned) [Example 127, (1R or S)-1-Biphenyl-4-yl-2-methyl-1-[(5-methyl[1,2,4]triazolo[1,5-a]pyrimidin-7-yl)amino]propan-2-ol] | 21

Row | SMILES | Ki [nM]
18 | Cc1cc(NC2(c3ccc(C(F)(F)F)cc3)CCCC2)n2ncnc2n1 [Example 67, 5-Methyl-N-{1-[4-(trifluoromethyl)phenyl]cyclopentyl}[1,2,4]triazolo [1,5-a]pyrimidin-7-amine] | 367
19 | Cc1cc(NC2(c3ccc(C(F)(F)F)c(F)c3)COC2)n2ncnc2n1 [Example 198, N-(3-(3-Fluoro-4-(trifluoromethyl)phenyl)oxetan-3-yl)-5-methyl-[1,2,4]triazolo [1,5-a]pyrimidin-7-amine] | 83
20 | Cc1cc(N[C@@H](c2ccc(C(F)(F)F)c(F)c2)C(C)(C)O)nc2ncnn12 (single isomer, unassigned) [Example 292] | > 2960
21 | Cc1cc(NC(C)(C)c2ccc(OC(F)(F)F)c(F)c2)n2ncnc2n1 [Example 45, N-{1-[3-Fluoro-4-(trifluoromethoxy)phenyl]-1-methylethyl}-5-methyl[1,2,4]triazolo[1,5-a]pyrimidin-7-amine] | 207
22 | Cc1cc(NC(c2ccc(C(F)(F)F)cn2)C(C)C)n2ncnc2n1 (single isomer, unassigned) [Example 212, (S)- or (R)-5-Methyl-N-(2-methyl-1-(5-(trifluoromethyl)pyridin-2-yl)propyl)-[1,2,4]triazolo [1,5-a]pyrimidin-7-amine] | 310
23 | CC(C)(C)[C@@H](Nc1cc(O)nc2ncnn12)c1ccc(C(F)(F)F)c(F)c1 [Example 238, (R)-7-(1-(3-Fluoro-4-(trifluoromethyl)phenyl)-2,2-dimethylpropylamino)-[1,2,4]triazolo[1,5-a]pyrimidin-5-ol] | 335
24 | Cc1cc(NC(c2ccc(C(F)(F)F)nc2)C(C)(C)O)n2ncnc2n1 (single isomer, unassigned) [Example 226, (S)- or (R)-2-Methyl-1-(5-methyl-[1,2,4]triazolo [1,5-a]pyrimidin-7-ylamino)-1-(6-(trifluoromethyl)pyridin-3-yl) propan-2-ol] | 356
25 | C[C@@H](Nc1cnnc2ncnn12)c1ccc(S(F)(F)(F)(F)F)cc1 [Example 259, (R)—N-{1-[4-(Pentafluoro-λ^6-sulfanyl)phenyl]ethyl}-[1,2,4]triazolo[5,1-a][1,2,4]trizain-4-amine] | 1430
26 | Cc1cc(NC(C)(C)c2ccc(C(F)(F)F)cc2)n2ncnc2n1 [Example 53, 5-Methyl-N-{1-methyl-1-[4-(trifluoromethyl)phenyl]ethyl} [1,2,4]triazolo[1,5-a]pyrimidin-7-amine] | 99
27 | Cc1cc(N[C@@H](c2ccc(SC(F)(F)F)cc2)C(C)(C)C)n2ncnc2n1 [Example 29, N-[(1R)-2,2-Dimethyl-1-{4-[(trifluoromethyl)sulfanyl]phenyl}propyl]-5-methyl[1,2,4]triazolo[1,5-a] pyrimidin-7-amine] | 2.1
28 | COc1cc(N[C@@H](c2ccc(C(F)(F)F)c(F)c2)C(C)(C)C)n2ncnc2n1 [Example 233, (R)—N-(1-(3-Fluoro-4-(trifluoromethyl)phenyl)-2,2-dimethylpropyl)-5-methoxy-[1,2,4]triazolo[1,5-a]pyrimidin-7-amine] | 256
29 | Cc1cc(NC2(c3ccc(C(C)(C)C)cc3)CC2)n2ncnc2n1 [Example 61, N-{1-[4-(tert-Butyl)phenyl]cyclopropyl}5-methyl-[1,2,4]triazolo[1,5-a]pyrimidin-7-amine] | 81
30 | Cc1cc(N[C@@H](c2ccc(C(F)(F)F)c(F)c2)C(C)(C)C)n2nc(CO)nc2n1 [Example 206, (R)-(7-(1-(3-Fluoro-4-(trifluoromethyl)phenyl)-2,2-dimethylpropylamino)-5-methyl-[1,2,4]triazolo [1,5-a]pyrimidin-2-yl)methanol] | 184
31 | FCc1cc(NC2(c3ccc(C(F)(F)F)c(F)c3)CC2)n2ncnc2n1 [Example 81, 5-(Fluoromethyl)-N-{1-[3-fluoro-4-(trifluoromethyl)phenyl]cyclopropyl}[1,2,4]triazolo[1,5-a]pyrimidin-7-amine] | 31
32 | CC(C)(O)C(Nc1cc(C(F)F)nc2ncnn12)c1ccc(OC(F)F)cc1F (single isomer, unassigned) [Example 182] | > 2960
33 | CC(C)(O)C(Nc1cc(C(F)F)nc2ncnn12)c1ccc(OC(F)(F)F)c(F)c1 (single isomer, unassigned) [Example 187, (1S or R)-{[5-(Difluoromethyl) [1,2,4]triazolo [1,5-a]pyrimidin-7-yl]amino}-1-[3-fluoro-4-(trifluoromethoxy)phenyl]-2-methylpropan-2-ol] | 5.5
34 | Cc1cc(NC2(c3ccc(C(F)(F)F)cc3F)CC2)n2ncnc2n1 [Example 62, N-{1-[2-Fluoro-4-(trifluoromethyl)phenyl]cyclopropyl}5-methyl-[1,2,4]triazolo[1,5-a]pyrimidin-7-amine] | 162
